What follows are molecules tested against human PDE4D catalytic domain (Homo sapiens (Human), UniProt Q08499) (assay: PDE4 Assay (TR-FRET, FAM-cAMP cleavage)). Settings: Table 16, Examples 277-296; read-out: PDE4 IC50 range.
Assay type: biochemical
Procedure, shortened: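 PDE4D catalytic domain (S380-L740) incubated briefly with unlabelled cAMP plus FAM-cAMP and titrated compound. Reaction stopped with binding buffer holding metal-ion nanoparticles that bind AMP phospho groups and Tb donor, and AMP formation read by TR-FRET. IC50 versus controls, reported as ranges (nM).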

Chain of human PDE4D catalytic domain (Q08499 380-740): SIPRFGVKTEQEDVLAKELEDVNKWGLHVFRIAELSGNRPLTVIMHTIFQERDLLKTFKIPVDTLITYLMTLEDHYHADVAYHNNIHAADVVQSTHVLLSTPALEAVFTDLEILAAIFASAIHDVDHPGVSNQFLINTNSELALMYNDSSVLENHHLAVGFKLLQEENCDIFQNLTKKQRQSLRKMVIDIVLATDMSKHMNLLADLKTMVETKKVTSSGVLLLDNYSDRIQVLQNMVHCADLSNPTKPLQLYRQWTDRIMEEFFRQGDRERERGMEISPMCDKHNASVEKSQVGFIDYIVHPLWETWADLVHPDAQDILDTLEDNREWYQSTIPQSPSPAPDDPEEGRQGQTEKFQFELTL

SMILES	IC50 [nM]
CCn1nc(C[C@@H](C)COC(=O)c2ccn(C)n2)c2c1C(=O)NCC1(CCOCC1)C2 [Example 278, [(2R)-3-(1-ethyl-8-oxo-spiro[6,7-dihydro-4H-pyrazolo[3,4-c]azepine-5,4′-tetrahydropyran]-3-yl)-2-methyl-propyl] 1-methylpyrazole-3-carboxylate]	< 100
CCn1nc(C[C@@H](C)COC(=O)C2CCN(C(=O)OC)CC2)c2c1C(=O)NCC1(CCOCC1)C2 [Example 295, [(2R)-3-(1-ethyl-8-oxo-spiro[6,7-dihydro-4H-pyrazolo-[3,4-c]azepine-5,4′-tetrahydro-pyran]-3-yl)-2-methyl-propyl] 1-methoxycarbonylpiperidine-4-carboxylate]	< 100
CCn1nc(C[C@@H](C)COC(=O)C2CCN(C(C)=O)CC2)c2c1C(=O)NCC1(CCOCC1)C2 [Example 294, [(2R)-3-(1-ethyl-8-oxo-spiro[6,7-dihydro-4H-pyrazolo[3,4-c]azepine-5,4′-tetrahydropyran]-3-yl)-2-methyl-propyl] 1-acetylpiperidine-4-carboxylate]	< 100

Same assay, conditions: human PDE4D catalytic domain (UniProt Q08499 [S380-L740]); 50% inhibition of substrate cleavage; read-out: PDE4 IC50 range

SMILES	IC50 [nM]
CCn1nc(CCCOC(=O)c2cc(C(F)(F)F)ccc2F)c2c1C(=O)NCC1(CCOCC1)C2 [Example 73, 3-(1-ethyl-8-oxo-spiro[6,7-dihydro-4H-pyrazolo[3,4-c]azepine-5,4′-tetrahydro-pyran]-3-yl)propyl 2-fluoro-5-(trifluoromethyl)benzoate]	< 100
CCn1nc(CCCCOC(=O)c2ccc(C(=O)N(C)C)cc2)c2c1C(=O)NCC1(CCOCC1)C2 [Example 129, 4-(1-ethyl-8-oxo-spiro[6,7-dihydro-4H-pyrazolo[3,4-c]azepine-5,4′-tetrahydropyran]-3-yl)butyl 4-(dimethyl-carbamoyl)benzoate]	< 100
CCn1nc(C[C@@H](C)COC(=O)c2ccccc2F)c2c1C(=O)NCC1(CCOCC1)C2 [Example 144, [(2R)-3-(1-ethyl-8-oxo-spiro[6,7-dihydro-4H-pyrazolo[3,4-c]azepine-5,4′-tetrahydropyran]-3-yl)-2-methyl-propyl] 2-fluorobenzoate]	< 100
CCn1nc(CCCOC(=O)c2cc(Cl)ccc2OC)c2c1C(=O)NCC1(CCOCC1)C2 [Example 60, 3-(1-ethyl-8-oxo-spiro[6,7-dihydro-4H-pyrazolo[3,4-c]azepine-5,4′-tetrahydropyran]-3-yl)propyl 5-chloro-2-methoxy-benzoate]	< 100
CCn1nc(CCCOC(=O)c2ccc(OC)cc2C(F)(F)F)c2c1C(=O)NCC1(CCOCC1)C2 [Example 81, 3-(1-ethyl-8-oxo-spiro[6,7-dihydro-4H-pyrazolo[3,4-c]azepine-5,4′-tetrahydro-pyran]-3-yl)propyl 4-methoxy-2-(trifluoromethyl)benzoate]	< 100
CCn1nc(CCCOC(=O)c2ccc(F)cc2C)c2c1C(=O)NCC1(CCOCC1)C2 [Example 19, 3-(1-ethyl-8-oxo-spiro[6,7-dihydro-4H-pyrazolo[3,4-c]azepine-5,4′-tetrahydropyran]-3-yl)propyl 4-fluoro-2-methyl-benzoate]	< 100
CCn1nc(CCCOC(=O)c2cccc(C#N)c2)c2c1C(=O)NCC1(CCOCC1)C2 [Example 11, 3-(1-ethyl-8-oxo-spiro[6,7-dihydro-4H-pyrazolo[3,4-c]azepine-5,4′-tetrahydropyran]-3-yl) propyl 3-cyanobenzoate]	< 100
CCc1ccc(C(=O)OC[C@H](C)Cc2nn(CC)c3c2CC2(CCOCC2)CNC3=O)cc1 [Example 148, [(2R)-3-(1-ethyl-8-oxo-spiro[6,7-dihydro-4H-pyrazolo[3,4-c]azepine-5,4′-tetrahydropyran]-3-yl)-2-methyl-propyl] 4-ethylbenzoate]	< 100
CCn1nc(CCCOC(=O)c2ccc(C)cc2Cl)c2c1C(=O)NCC1(CCOCC1)C2 [Example 42, 3-(1-ethyl-8-oxo-spiro[6,7-dihydro-4H-pyrazolo[3,4-c]azepine-5,4′-tetrahydropyran]-3-yl)propyl 2-chloro-4-methyl-benzoate]	< 100
CCn1nc(C[C@@H](C)COC(=O)c2cccc(C(=O)N3CCCCC3)c2)c2c1C(=O)NCC1(CCOCC1)C2 [Example 182, [(2R)-3-(1-ethyl-8-oxo-spiro[6,7-dihydro-4H-pyrazolo[3,4-c]azepine-5,4′-tetrahydropyran]-3-yl)-2-methyl-propyl] 3-(piperidine-1-carbonyl)benzoate]	< 100
CCn1nc(C[C@@H](C)COC(=O)c2ccc(S(=O)(=O)N(C)C)cc2)c2c1C(=O)NCC1(CCOCC1)C2 [Example 161, [(2R)-3-(1-ethyl-8-oxo-spiro[6,7-dihydro-4H-pyrazolo[3,4-c]azepine-5,4′-tetrahydropyran]-3-yl)-2-methyl-propyl] 4-(di-methylsulfamoyl)benzoate]	< 100
CCn1nc(CCCOC(=O)c2c(F)cccc2F)c2c1C(=O)NCC1(CCOCC1)C2 [Example 26, 3-(1-ethyl-8-oxo-spiro[6,7-dihydro-4H-pyrazolo[3,4-c]azepine-5,4′-tetrahydropyran]-3-yl)propyl 2,6-difluorobenzoate]	< 100
CCn1nc(C[C@@H](C)COC(=O)c2cccc(S(=O)(=O)N3CCCC3)c2)c2c1C(=O)NCC1(CCOCC1)C2 [Example 163, [(2R)-3-(1-ethyl-8-oxo-spiro[6,7-dihydro-4H-pyrazolo[6,7-c]azepine-5,4′-tetrahydropyran]-3-yl)-2-methyl-propyl] 3-pyrrolidin-1-ylsulfonylbenzoate]	< 100
CCn1nc(CCCOC(=O)c2cc(Cl)ccc2C(F)(F)F)c2c1C(=O)NCC1(CCOCC1)C2 [Example 87, 3-(1-ethyl-8-oxo-spiro[6,7-dihydro-4H-pyrazolo[3,4-c]azepine-5,4′-tetrahydro-pyran]-3-yl)propyl 5-chloro-2-(trifluoromethyl)benzoate]	< 100
CCn1nc(CCCOC(=O)c2ccc(Cl)cc2F)c2c1C(=O)NCC1(CCOCC1)C2 [Example 53, 3-(1-ethyl-8-oxo-spiro[6,7-dihydro-4H-pyrazolo[3,4-c]azepine-5,4′-tetrahydropyran]-3-yl)propyl 4-chloro-2-fluoro-benzoate]	< 100
CCn1nc(CCCCOC(=O)C2CCOCC2)c2c1C(=O)NCC1(CCOCC1)C2 [Example 270, 4-(1-ethyl-8-oxo-spiro[6,7-dihydro-4H-pyrazolo[3,4-c]azepine-5,4′-tetrahydropyran]-3-yl)butyl tetrahydropyran-4-carboxylate]	< 100
CCn1nc(CCCOC(=O)c2ccc(OC)c(C)c2)c2c1C(=O)NCC1(CCOCC1)C2 [Example 33, 3-(1-ethyl-8-oxo-spiro[6,7-dihydro-4H-pyrazolo[3,4-c]azepine-5,4′-tetrahydropyran]-3-yl)propyl 4-methoxy-3-methyl-benzoate]	< 100
CCn1nc(CCCOC(=O)c2cccc(C(F)(F)F)c2C)c2c1C(=O)NCC1(CCOCC1)C2 [Example 68, 3-(1-ethyl-8-oxo-spiro[6,7-dihydro-4H-pyrazolo[3,4-c]azepine-5,4′-tetrahydro-pyran]-3-yl)propyl 2-methyl-3-(trifluoromethyl)benzoate]	< 100
CCn1nc(CCCOC(=O)c2ccc(C(F)(F)F)cc2C(F)(F)F)c2c1C(=O)NCC1(CCOCC1)C2 [Example 97, 3-(1-ethyl-8-oxo-spiro[6,7-dihydro-4H-pyrazolo[3,4-c]azepine-5,4′-tetrahydro-pyran]-3-yl)propyl 2,4-bis(trifluoromethyl)benzoate]	< 100
CCn1nc(CCCOC(=O)C2CCOCC2)c2c1C(=O)NCC1(CCOCC1)C2 [Example 246, 3-(1-ethyl-8-oxo-spiro[6,7-dihydro-4H-pyrazolo[3,4-c]azepine-5,4′-tetrahydropyran]-3-yl)propyl tetrahydropyran-4-carboxylate]	< 100
CCn1nc(CCCOC(=O)c2ccc(F)c(Cl)c2)c2c1C(=O)NCC1(CCOCC1)C2 [Example 54, 3-(1-ethyl-8-oxo-spiro[6,7-dihydro-4H-pyrazolo[3,4-c]azepine-5,4′-tetrahydropyran]-3-yl)propyl 3-chloro-4-fluoro-benzoate]	< 100
CCn1nc(CCCOC(=O)c2cccc(F)c2C)c2c1C(=O)NCC1(CCOCC1)C2 [Example 21, 3-(1-ethyl-8-oxo-spiro[6,7-dihydro-4H-pyrazolo[3,4-c]azepine-5,4′-tetrahydropyran]-3-yl)propyl 3-fluoro-2-methyl-benzoate]	< 100
CCn1nc(CCCOC(=O)c2ccc(C(F)F)cc2)c2c1C(=O)NCC1(CCOCC1)C2 [Example 45, 3-(1-ethyl-8-oxo-spiro[6,7-dihydro-4H-pyrazolo[3,4-c]azepine-5,4′-tetrahydropyran]-3-yl)propyl 4-(difluoromethyl)benzoate]	< 100
CCn1nc(CCCOC(=O)c2cccc(OC)c2)c2c1C(=O)NCC1(CCOCC1)C2 [Example 17, 3-(1-ethyl-8-oxo-spiro[6,7-dihydro-4H-pyrazolo[3,4-c]azepine-5,4′-tetrahydropyran]-3-yl)propyl 3-methoxybenzoate]	< 100
CCn1nc(CCCOC(=O)c2cccc(C(=O)N3CCOCC3)c2)c2c1C(=O)NCC1(CCOCC1)C2 [Example 118, 3-(1-ethyl-8-oxo-spiro[6,7-dihydro-4H-pyrazolo[3,4-c]azepine-5,4′-tetrahydropyran]-3-yl)propyl 3-(morpholine-4-carbonyl)benzoate]	< 100
CCn1nc(CCCOC(=O)c2ccn(C)n2)c2c1C(=O)NCC1(CCOCC1)C2 [Example 237, 3-(1-ethyl-8-oxo-spiro[6,7-dihydro-4H-pyrazolo[3,4-c]azepine-5,4′-tetrahydropyran]-3-yl)propyl 1-methylpyrazole-3-carboxylate]	< 100
CCn1nc(CCCOC(=O)C2CCCC2)c2c1C(=O)NCC1(CCOCC1)C2 [Example 5, 3-(1-ethyl-8-oxo-spiro[6,7-dihydro-4H-pyrazolo[3,4-c]azepine-5,4′-tetrahydropyran]-3-yl)propyl cyclopentanecarboxylate]	< 100

Reference: patent US10793580B2, “Substituted pyrazoloazepin-8-ones and their use as phosphodiesterase inhibitors” (LEO Pharma A/S, priority 2016, dated 2020)
